System: KCNQ channels
Experiment: Thallium flux assay for KCNQ channel openers
Format: cell-based
Settings: HEK-293 cells stably transfected with a KCNQ family member; for Min. conc. response: minimal active concentration: lowest concentration giving signal amplitude >= four standard deviations of negative controls; for EC50: thallium flux, 10 point concentration series
Method: Thallium Flux Assay for KCNQ channel Openers. The thallium assay is a modification of that published by Weaver and is referenced in its entirety (Weaver, C. D. WO 02/31508, 2002).
Approximately 20,000 cells/well of an HEK-293 cell line stably transfected with one of the members of the KCNQ family were plated into clear-bottom, black-walled, poly-D-lysine coated, 384 well assay plates in 20 μl/well of low chloride plating medium. Low chloride plating medium was composed of the following: sodium gluconate, 109 mM; potassium gluconate, 5.4 mM; hemi-calcium gluconate, 3.6 mM; magnesium sulfate, 0.8 mM; sodium bicarbonate, 26.2 mM; sodium phosphate monobasic, 1.2 mM; glutamine, 2 mM; glucose, 5 mM; 4-(2-hydroxyethyl)-1-piperazineethanesulfonic acid (HEPES) (pH 7.3) 10 mM, MEM vitamin solution (10× concentration of vitamins, Gibco/LifeTechnologies 11120-052) and MEM amino acid solution (1× concentration of amino acids, Gibco/LifeTechnologies 11130-051).
Following overnight incubation in a 5% CO2 incubator at 37° C., the cells in the plates were loaded with 20 μl/well of a dye loading solution containing the commercially available thallium-sensitive fluorescent dye BTC-AM, the acetomethoxy ester of BTC (see U.S. Pat. No. 5,501,980) (2 μM) and pluronic acid F-127 (Molecular Probes P 6867) (0.02% w/v) in chloride free assay buffer. Chloride free assay buffer was composed of the following: sodium gluconate, 140 mM; potassium gluconate, 2.5 mM; hemi-calcium gluconate, 6 mM; hemi-magnesium gluconate, 2 mM; glucose, 5 mM; HEPES (pH 7.3), 10 mM.
Following incubation in the dye loading solution for from 45-90 min at room temperature, the dye loading solution was removed by aspiration and replaced with 40 μl/well of chloride free assay buffer.
Prior to addition to cell plates, test compound and standard compounds were dissolved in DMSO to 3 mM concentration. Compounds were then diluted from the 3 mM stock to 100-fold over the final assay concentration in DMSO. Finally, compounds in DMSO were diluted from 100-fold over the final assay concentration to 5-fold over the final assay concentration in chloride free assay buffer.
Ten μl/well of compounds at 5-fold over the final assay concentration were then added to the cell plates. This represents a 1:5 dilution, yielding the final test concentration. The wells used for test compounds were A1-P20. Wells A21-P22 contained a standard opener and a maximally efficacious concentration (positive control). Wells A23-P24 contained chloride free assay buffer containing 1% DMSO (negative control).
Following addition of test compounds, the plates were loaded onto the Molecular Devices FLIPR. The 488 nm line of the argon laser was used to excite the BTC and the emission filter was a 540(+/−30) nm. Images were collected at 1 Hz. Ten seconds of baseline were collected and then the FLIPR was used to add 13 μl/well of a stimulus buffer composed of 7.5 mM Tl2SO4 in chloride free assay buffer. Images were collected for an additional 60 seconds.
For data analysis, the amplitude of the average of the negative controls was subtracted from all wells. The amplitudes of the test compounds were then compared to the value of four standard deviations of the negative control wells. The lowest concentration of a test compound sufficient to generate a signal amplitude greater than or equal to four standard deviations from the amplitude of the negative controls was defined as the minimal active concentration.
For generating EC50 values, compounds were serially diluted in 1:3 volume increments to produce a 10 point concentration series. EC50 values were calculated by fitting the resulting amplitudes to a single-site logistic equation. EC50 was defined as the concentration of test compound required to yield 50% of the maximal response. Maximal response (Maximal opening) was the largest signal amplitude divided by the negative control amplitude generated by any concentration of a test compound. […]

| Structure (SMILES) | Min. conc. response | EC50 |
| --- | --- | --- |
| C[C@H](NC(=O)c1sc(-c2ncccc2CN2CCOCC2)nc1C(F)(F)F)c1cccc(-c2cccnc2)c1 [Example 67, (S)-2-[3-(4-morpholinylmethyl)pyridin-2-yl]-4-(trifluoromethyl)-N-[1-[3-(3-pyridinyl)phenyl]ethyl]-5-thiazolecarboxamide] | 30 µM | 50 to 1000 nM |
| CCN(Cc1cccnc1-c1nc(C(F)(F)F)c(C(=O)N[C@@H](C)c2cccc(-c3cccnc3)c2)s1)C(C)C [Example 68, (S)-2-[3-[ethyl(2-propyl)aminomethyl]pyridin-2-yl]-4-(trifluoromethyl)-N-[1-[3-(3-pyridinyl)phenyl]ethyl]-5-thiazolecarboxamide] | 30 µM | 1000 to 20000 nM |
| CCN(Cc1ccncc1)Cc1cccnc1-c1nc(C(F)(F)F)c(C(=O)N[C@@H](C)c2cccc(-c3cccnc3)c2)s1 [Example 69, (S)-2-[3-[(4-pyridinylmethyl)ethylaminomethyl]pyridin-2-yl]-4-(trifluoromethyl)-N-[H-[3-(3-pyridinyl)phenyl]ethyl]-5-thiazolecarboxamide] | 3 µM | 50 to 1000 nM |
| CCN(Cc1cccnc1-c1nc(C(F)(F)F)c(C(=O)NC(C)c2cccc(OC(F)(F)F)c2)s1)C(C)C (centres unmarked) [Example 70, 2-[3-[ethyl(2-propyl)aminomethyl]pyridin-2-yl]-4-(trifluoromethyl)-N-[1-[3-(trifluoromethoxy)phenyl]ethyl]-5-thiazolecarboxamide] | 3 µM | 50 to 1000 nM |
| Cc1cccnc1-c1nc(C(F)(F)F)c(C(=O)N[C@@H](C)c2cccc(-c3cccnc3)c2)s1 [Example 73, (S)-2-(3-methylpyridin-2-yl)-4-(trifluoromethyl)-N-[1-[3-(3-pyridinyl)phenyl]ethyl]-5-thiazolecarboxamide] | 0.3 µM | 50 to 1000 nM |
| CC(NC(=O)c1sc(-c2ccccc2CN(C)C)nc1C(F)(F)F)c1cccc(OC(F)(F)F)c1 (centres unmarked) [Example 74] | 3 µM | 1000 to 20000 nM |
| COc1cccc([C@H](C)NC(=O)c2sc(-c3ccccc3CN(C)C)nc2C(F)(F)F)c1 [Example 76] | 10 µM | 50 to 1000 nM |
| CCN(CC)Cc1ccccc1-c1nc(C(F)(F)F)c(C(=O)NCc2cccc(F)c2)s1 [Example 79] | 3 µM | 50 to 1000 nM |
| CCN(CC)Cc1ccccc1-c1nc(C(F)(F)F)c(C(=O)N[C@@H](C)c2cccc(OC)c2)s1 [Example 82] | 0.3 µM | 50 to 1000 nM |
| CC(NC(=O)c1sc(-c2ccc(F)cc2)nc1C(F)(F)F)c1cccc(C(F)(F)F)c1 (centres unmarked) [Example 83] | 0.3 µM | – |
| COc1ccccc1-c1nc(C(F)(F)F)c(C(=O)NCc2ccccn2)s1 [Example 84] | 30 µM | – |
| COc1cccc(-c2nc(C(F)(F)F)c(C(=O)NCc3cccc(F)c3)s2)c1 [Example 85] | 30 µM | – |
| COc1cccc(-c2nc(C(F)(F)F)c(C(=O)NC(C)c3ccc4c(c3)CCO4)s2)c1 (centres unmarked) [Example 86] | 3 µM | – |
| CC(NC(=O)c1sc(-c2ccc3c(c2)OCO3)nc1C(F)(F)F)c1cccc(C(F)(F)F)c1 (centres unmarked) [Example 87] | 0.3 µM | – |
| COc1cccc(-c2nc(C(F)(F)F)c(C(=O)NCc3ccccn3)s2)c1 [Example 88] | 30 µM | – |
| COc1ccc(-c2nc(C(F)(F)F)c(C(=O)NC(C)c3cccc(C(F)(F)F)c3)s2)cc1OC (centres unmarked) [Example 89] | 30 µM | – |
| COc1ccc(-c2nc(C(F)(F)F)c(C(=O)NC(C)c3ccc(OC)c(OC)c3)s2)cc1OC (centres unmarked) [Example 90] | 10 µM | – |
| COc1ccc(-c2nc(C(F)(F)F)c(C(=O)NCc3cccc(OC(F)(F)F)c3)s2)cc1OC [Example 91] | 30 µM | – |
| CC(NC(=O)c1sc(-c2cccc(F)c2)nc1C(F)(F)F)c1cccc(C(F)(F)F)c1 (centres unmarked) [Example 92] | 3 µM | – |
| O=C(NCc1cccc(F)c1)c1sc(-c2cccc(F)c2)nc1C(F)(F)F [Example 93] | 10 µM | – |
| CC(NC(=O)c1sc(-c2cccc(F)c2)nc1C(F)(F)F)c1cccc(OC(F)(F)F)c1 (centres unmarked) [Example 95] | 0.3 µM | – |
| COc1ccccc1-c1nc(C(F)(F)F)c(C(=O)NC(C)c2cccc(Br)c2)s1 (centres unmarked) [Example 96] | 3 µM | – |

| Structure (SMILES) | Min. conc. response | EC50 |
| --- | --- | --- |
| CC(NC(=O)c1sc(-c2cccc(N3CCOCC3)c2)nc1C(F)(F)F)c1cccc(OC(F)(F)F)c1 (centres unmarked) [Example 97] | 10 µM | – |
| CC(NC(=O)c1sc(-c2cccc(N3CCOCC3)c2)nc1C(F)(F)F)c1cccc(C(F)(F)F)c1 (centres unmarked) [Example 98] | 3 µM | – |
| CCN(CC)CCOc1ccccc1-c1nc(C(F)(F)F)c(C(=O)N[C@@H](C)c2cccc(N3CCOCC3)c2)s1 [Example 100] | 30 µM | – |
| CCN(CC)CCOc1ccccc1-c1nc(C(F)(F)F)c(C(=O)N[C@@H](C)c2cccc(OC)c2)s1 [Example 101] | 3 µM | – |
| CC(NC(=O)c1sc(-c2ccccc2F)nc1C(F)(F)F)c1cccc(N)c1 (centres unmarked) [Example 102] | 0.3 µM | – |
| CC(NC(=O)c1sc(-c2csc3ccccc23)nc1C(F)(F)F)c1cccc(CN2CCCC2)c1 (centres unmarked) [Example 103] | 0.3 µM | – |
| CCN(CC)CCOc1ccccc1-c1nc(C(F)(F)F)c(C(=O)NC(C)c2cccc(OC(F)(F)F)c2)s1 (centres unmarked) [Example 104] | 10 µM | – |
| CC(NC(=O)c1sc(-c2ccccc2CN(C)C)nc1C(F)(F)F)c1cccc(C(F)(F)F)c1 (centres unmarked) [Example 105] | 30 µM | – |
| CCN(CC)Cc1ccccc1-c1nc(C(F)(F)F)c(C(=O)NC(C)c2cccc(CN3CCOCC3)c2)s1 (centres unmarked) [Example 106] | 10 µM | – |
| CCN(CC)Cc1ccccc1-c1nc(C(F)(F)F)c(C(=O)NC(C)c2cccc(-c3cccnc3)c2)s1 (centres unmarked) [Example 107] | 30 µM | – |
| CC(NC(=O)c1sc(-c2ccccc2CN2CCOCC2)nc1C(F)(F)F)c1cccc(OC(F)(F)F)c1 (centres unmarked) [Example 108] | 0.3 µM | – |
| O=C(NCc1cccc(OC(F)(F)F)c1)c1sc(-c2ccccc2CN2CCOCC2)nc1C(F)(F)F [Example 109] | 3 µM | – |
| C[C@H](NC(=O)c1sc(-c2ccccc2CN2CCOCC2)nc1C(F)(F)F)c1cccc(N2CCOCC2)c1 [Example 110] | 3 µM | – |
| COc1cccc([C@H](C)NC(=O)c2sc(-c3ccccc3CN3CCOCC3)nc2C(F)(F)F)c1 [Example 111] | 0.3 µM | – |
| COc1cccc([C@H](C)NC(=O)c2sc(-c3ccccc3CN3CCN(C)CC3)nc2C(F)(F)F)c1 [Example 112] | 30 µM | – |
| CCN(Cc1ccncc1)Cc1ccccc1-c1nc(C(F)(F)F)c(C(=O)NC(C)c2cccc(OC(F)(F)F)c2)s1 (centres unmarked) [Example 113] | 0.3 µM | – |
| CCN(Cc1ccncc1)Cc1ccccc1-c1nc(C(F)(F)F)c(C(=O)NCc2cccc(OC)c2)s1 [Example 114] | 3 µM | – |
| CCN(Cc1ccncc1)Cc1ccccc1-c1nc(C(F)(F)F)c(C(=O)N[C@@H](C)c2cccc(N3CCOCC3)c2)s1 [Example 115] | 3 µM | – |
| CCN(Cc1ccncc1)Cc1ccccc1-c1nc(C(F)(F)F)c(C(=O)NC(C)c2cccc(CN3CCOCC3)c2)s1 (centres unmarked) [Example 116] | 3 µM | – |
| CCN(Cc1ccncc1)Cc1ccccc1-c1nc(C(F)(F)F)c(C(=O)NC(C)c2cccc(-c3cccnc3)c2)s1 (centres unmarked) [Example 117] | 0.3 µM | – |
| Cc1cccnc1-c1nc(C(F)(F)F)c(C(=O)N[C@@H](C)c2cccc(N3CCOCC3)c2)s1 [Example 118] | 10 µM | – |
| CC(NC(=O)c1sc(-c2ncccc2CN2CCOCC2)nc1C(F)(F)F)c1cccc(C(F)(F)F)c1 (centres unmarked) [Example 124] | 3 µM | – |

Reference: patent US7273866B2, “2-aryl thiazole derivatives as KCNQ modulators” (Bristol-Myers Squibb Company, priority 2002, dated 2007)
